Reference: patent publication US10968214B2, “KRas G12C inhibitors” (Eli Lilly and Company, priority 2018, dated 2021)
Read-outs that look alike come from different tables or passages of the source.

Assays:
H23 = assay: CellTiterGlo Cell Proliferation Assay, H23; assay type: cell-based; details: Homo sapiens, NCI-H23, KRas G12C, Lung, 96 hr
Method: (§1) A panel of tumor cell lines harboring KRas G12C or other KRas mutations are collected (Table 6). All cell lines are from ATCC or other sources indicated.
(§2) Typically cells are cultured in RPMI1640 or Dulbecco's modified Eagle's medium (DMEM, GIBCO) supplemented with 10% FBS (GIBCO, Invitrogen). For 2D culture cells (4×10^3/well) maintained in growth medium described above, are plated onto 96 well tissue culture plates Corning® Cat. 3603) a day before the treatment. For 3D culture 8000 cells/well are seeded onto 96 well ultra-low attachment tissue culture plates (Corning, #3474). The cells are treated compound for 96 hr, and then are analyzed for viability using the CellTiterGlo® Luminescent Cell Viability Assay® (Promega #G7572 for 2D and Promega #G9683 for 3D cultures) according to manufacturer's instructions and an EnVision™ plate reader. Nonlinear regression and sigmoidal dose-response curves are used to calculate the half maximal inhibitory concentration (IC50) with GraphPad Prism 4® software.

H1373 = assay: CellTiterGlo Cell Proliferation Assay, H1373; assay type: cell-based; details: Homo sapiens, NCI-H1373, KRas G12C, Lung, 96 hr
Method: as §1, §2

[1] = biological target: T1, active KRas in H2122 xenograft tumors (Homo sapiens, UniProt P01116, G12C); assay: In vivo target inhibition/PD, H2122 xenograft, active KRas; details: NCI-H2122, mouse; for inhibition at 10 mg/kg: 10 mg/kg single dose; for inhibition at 30 mg/kg: 30 mg/kg single dose
T1 construct: from tissue; host or cells: H2122 xenograft tumours from nude mice
T1 sequence (P01116 1-188 isoform P01116-2 G12C): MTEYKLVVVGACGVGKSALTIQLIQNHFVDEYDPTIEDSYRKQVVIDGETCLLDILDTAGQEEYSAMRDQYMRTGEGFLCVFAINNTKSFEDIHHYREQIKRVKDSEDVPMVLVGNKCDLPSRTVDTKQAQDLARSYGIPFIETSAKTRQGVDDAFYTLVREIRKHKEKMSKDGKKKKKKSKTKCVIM
Method: To evaluate in vivo target inhibition and anti-tumor efficacy of a compound, Human lung cancer cells, H358 or H2122 are implanted into nude mice xenograft tumor models. Either H358 or H2122 cells (10×10^6 in a 1:1 Matrigel® mix, 0.2 mL total volume) are implanted by subcutaneous injection in hind leg of nude female mice (Harlan Laboratories). A total of 5 mice each group are used for efficacy study, and a total of 3-4 mice each group are used for target engagement and PD study. Treatment is initiated with oral administration (gavage) of a test compound or vehicle (20% Captisol®, 25 mM phosphate, pH 2.0 in 0.2 mL volume when the tumor size reaches approximately […]. Tumor growth and body weight are monitored over time to evaluate efficacy and signs of toxicity. Bidimensional measurements of tumors are performed twice a week and tumor volumes are calculated based on mid-axis length and mid-axis width. Tumor volume data are transformed to a log scale to equalize variance across time and treatment groups. The log volume data are analyzed with a two-way repeated measures analysis of variance by time and treatment using the mixed procedures in SAS software (version 8.2). The correlation model for the repeated measures is spatial power. Treated groups are compared to the control group at each time point. The mixed procedure is also used separately for each treatment group to calculate adjusted means and standard errors at each time point. Both analyses account for the autocorrelation within each animal. The adjusted means and standard errors are plotted for each treatment group versus time.
For in vivo target inhibition and PD analysis, tumors are ground by mortar and pestle on dry ice and tumor fragments are added to 800 μL of lysis buffer containing 1% Triton X100, 25 mM Tris pH 7.5, 150 mM NaCl, 1 mM EDTA, and 1 mM EGTA with Halt protease and phosphatase inhibitor cocktail (Thermo Scientific, cat. no. 1861281) in lysing matrix D tubes (MP Biomedical®, cat. no. 6913-500) with one additional large bead (MP Biomedical® ¼″ ceramic sphere bead cat. no. 6540-412) per tube. Tumor fragments are homogenized in a Thermo Bio101® fast prep (FP120) at setting 4 for […] while cold for a total of 2 times. Lysates are spun at 14,000 rpm for 10 min at 4° C. to clarify. Protein estimation is done on the lysate supernatant using a BioRad Dc® protein assay and lysates are diluted in complete lysis/binding buffer from the Ras GTPase Chemi ELISA Kit® (Active Motif, cat. no. 52097). The active KRas ELISA was performed as follows: Glutathione-coated ELISA wells were incubated with diluted RAF1-GST in complete lysis/binding buffer for 1 hr at 4° C. with gentle agitation. Wells are washed 3 times with wash buffer and 100 μg of lysates are added to each well and incubated at RT for 1 hr with mild agitation. The wells are washed an additional 3 times, then primary antibody, diluted in antibody binding buffer, is added to each well. The plates are incubated for 1 hr. The wells are washed 3 more times before adding HRP-conjugated secondary antibody, diluted in antibody binding buffer, to each well. The plates are incubated at RT for 1 hr. ELISA wells are washed 4 times, chemiluminescent reagents is added and then luminescence is read. For pERK Meso Scale Discovery ELISA, 25 μg of protein containing 0.1% SDS is used; for pMEK Meso Scale Discovery ELISA, 50 μg of protein without SDS is used. Meso Scale Discovery Whole Cell Lysate Kits for pERK and pMEK are provided by Meso Scale Discovery.
After a single dose, the tumor samples are harvested at different time points. The tumor lysates are prepared as described above. The inhibition of pERK, pMEK, and active KRas is measured as described above.

CT-26-H4/KRas G12C = CT-26-H4/KRas G12C mouse syngeneic model, immuno-therapy combination; assay type: in vivo; details: Example 1 30 mg/kg BID × 21 PO, PD-L1 antibody 500 ug/mouse Q7D × 3 IP, PD-1 antibody 250 ug/mouse BIW × 3 IP
Description: A mouse syngeneic model is used to evaluate the effects of KRas G12C inhibition and immuno-therapy combination. In this model, the KRas G12D mutation is converted to KRas G12C mutation by CRISPR knock-in in the CT-26 cell line, a mouse colorectal tumor cell line. The KRas G12C knock-in is confirmed by genetic and functional characterization. The engineered cell line is named CT-26-H4/KRas G12C. These cells are implanted to the Balb/c mice, and the compound treatment is started 6 days post tumor cell implantation. PD-1 and PD-L1 inhibitors are known in the art and include durvalumab, pembrolizumab, and nivolumab. […] After 3 weeks, compound treatment is stopped and all tumors in monotherapy groups with the exception of 1 animal in the anti-PD-1 group started to regrow. However, the tumors in the two combination groups have no signs of regrowth.

[2] = read-out: IC50 (μM) in 2 D cell proliferation
[3] = read-out: IC50 (μM) in 3 D spheroid cell proliferation
[4] = 2 hr, read-out: % Inhibition Active KRas
[5] = 4 hr, read-out: % Inhibition Active KRas
[6] = 8 hr, read-out: % Inhibition Active KRas
[7] = 12 hr, read-out: % Inhibition Active KRas
[8] = 24 hr, read-out: % Inhibition Active KRas

IC50 (H1373; [2]): 0.209 µM
IC50 (H1373; [3]): 0.02 µM
inhibition at 10 mg/kg [1, 4]: 25.8%
inhibition at 10 mg/kg [1, 5]: 32.3%
inhibition at 10 mg/kg [1, 6]: 34.7%
inhibition at 10 mg/kg [1, 7]: 37.1%
inhibition at 10 mg/kg [1, 8]: 16.7%
inhibition at 10 mg/kg ([1]; from 2-12 hr, read-out: active KRas inhibition): 26 to 37%
inhibition at 30 mg/kg [1, 4]: 57.5%
inhibition at 30 mg/kg [1, 5]: 78.8%
inhibition at 30 mg/kg [1, 6]: 67%
inhibition at 30 mg/kg [1, 7]: 46.5%
inhibition at 30 mg/kg [1, 8]: 26.1%
inhibition at 30 mg/kg ([1]; from 2-[…], read-out: active KRas inhibition): 26 to 79%
inhibition at 100 mg/kg ([1]; 100 mg/kg single dose, 4 hr): 90.6%
Structure (SMILES): C=CC(=O)N1CCN(c2ncnc3c(F)c(-c4ccc(F)c5sc(N)nc45)c(Cl)cc23)CC1 [Example 1, 1-{4-[7-(2-Amino-7-fluoro-1,3-benzothiazol-4-yl)-6-chloro-8-fluoroquinazolin-4-yl]piperazin-1-yl}prop-2-en-1-one]
IC50 (H23; [2]): 0.08 µM
IC50 (H23; [3]): 0.031 µM
Complete Response (% CR) (CT-26-H4/KRas G12C; 40 days post treatment): 0%
Complete Response (CR)/group mice (CT-26-H4/KRas G12C; 40 days post treatment): 0/10
% Tumor Growth Inhibition (CT-26-H4/KRas G12C; End of treatment at day 28): 96%
Complete Response (% CR) (CT-26-H4/KRas G12C; End of treatment at day 28): 10%
Complete Response (CR)/group mice (CT-26-H4/KRas G12C; End of treatment at day 28): 1/10
